In patent US20170172994A1, “COMPOSITIONS AND METHODS FOR TREATING BACTERIAL INFECTIONS” (WOCKHARDT LIMITED, priority 2013, published 2017):
Where two headings read alike, the source gives them in different places.

Tests used:
[1] = tested on: P. aeruginosa PAO1; assay: Time kill study (viability count); format: cell-based; settings: for Bacterial count: Compound of Formula (III) 4 μg/ml, alone or combined; for Bactericidal action (in words): P. aeruginosa PAO1, standalone or combination, Tables 6 and 7
Protocol: (§1) The antibacterial effectiveness of various antibacterial agents in presence of a compound of Formula (III) was investigated and the results are detailed below. In a typical study, overnight cultures in Trypticase soya broth (TSB) were brought to log phase by 1 in 10 dilution in fresh cation adjusted Mueller Hinton Broth (MHB) and incubation for 2.5 hours at 35° C. in orbital shaker. Log phase cultures were diluted to desired inoculums in flasks with MHB, containing various drug concentrations. Flasks were incubated at 35° C. in orbital shaker with rotational speed of 125 rpm. Viability count was determined by 1 in 10 serial dilutions of samples in normal saline and surface spreading of 10 μl of dilutions in duplicate on Trypticase soya agar plates. Plates were incubated for 24 hours at 35° C. and colonies were enumerated to determine the colony forming units (CFU) per ml volume.

[2] = tested on: E. coli ATCC 25922; assay: Time kill study (viability count); format: cell-based; settings: for Bacterial count: Compound of Formula (III) 2 μg/ml, alone or combined; for Bactericidal action (in words): E. coli ATCC 25922, standalone or combination, Tables 3 to 5
Protocol: as §1

[3] = tested on: Pseudomonas aeruginosa NCTC 13437 producing carbapenem hydrolyzing MBL (VIM 10) & Class A (VEB1); assay: Time kill study (viability count); format: cell-based; settings: Cefepime 8 μg/ml, Compound of Formula (III) 8 μg/ml, Imipenem 16 μg/ml
Protocol: as §1

[4] = tested on: Acinetobacter baumannii NCTC 13304 producing carbapenem hydrolyzing Class D OXA enzyme (OXA 27); assay: Time kill study (viability count); format: cell-based; settings: Cefepime 8 μg/ml, Compound of Formula (III) 8 μg/ml, Imipenem 16 μg/ml
Protocol: as §1

[5] = tested on: MDR P. mirabilis G 186 producing NDM & TEM β-lactamases; assay: Time kill study at MFC and MSC; format: cell-based; settings: Cefepime 8 mcg/ml (MFC), Compound of Formula (III) 0.25 mcg/ml (MSC), Imepenem 8 mcg/ml
Protocol: (§2) The synergistic killing effect of the combinations according to invention was studied by performing time kill studies. In a typical time kill study, the freshly grown cultures were diluted to the required cell density (initial starting inoculum) in Cation adjusted Muller Hinton broth medium (BD, USA). The antibacterial agents (either alone or in combination) at the required concentrations were added into the culture-containing medium. The samples were incubated under shaking condition (120 rpm) at 37° C. Enumeration of viable bacterial count was done every 2 hour by diluting in normal saline and plating on to the Tryptic Soya Agar plates (BD, USA). The plates were incubated for 24 hours to arrive at the viable bacterial count. The results are expressed in terms of Log CFU per ml. In general, the decrease of 1 Log CFU/ml, corresponds to 90% killing of bacteria. Similarly, 2 Log CFU/ml reductions indicates to 99% killing of bacteria and 3 Log CFU/ml reductions is equal to 99.9% killing of bacteria.

[6] = tested on: MDR Klebsiella pneumoniae B 88 producing NDM, SHV & TEM beta-lactamases; assay: Time kill study at MFC and MSC; format: cell-based; settings: Cefepime 8 mcg/ml (MFC), Compound of Formula (III) 0.12 mcg/ml (MSC), Imepenem 8 mcg/ml
Protocol: as §2

[7] = tested on: K. pneumonia S48 expressing multiple ESBLs including MBL (NDM4) and Class A (CTX-M, SHV, TEM); format: cell-based, K. pneumoniae; settings: Cefepime 8 μg/ml, Compound of Formula (III) 2 μg/ml, Clavulanic acid 2 μg/ml, Mecillinam 2 μg/ml, Imipenem 8 μg/ml
Protocol: Log phase cultures were diluted to desired inoculums in flasks with MHB, containing various drug concentrations. Flasks were incubated at 35° C. in orbital shaker with rotational speed of 125 rpm. […] Plates were incubated for 24 hours at 35° C. and colonies were enumerated to determine the colony forming units (CFU) per ml volume.

[8] = tested on: E. coli ATCC 25922; assay: Microbiological drug diffusion assay, standalone compounds in absence of beta-lactamase enzymes; format: cell-based; settings: Escherichia coli, ATCC25922, 40 μg/ml, no beta-lactamase, read-out: Inhibition zone diameter
Protocol: Next, the beta-lactamase stability of some of these compounds was evaluated. In a typical stability study, ESBL enzymes from K. pneumoniae S48 producing Metalo betalactamase (NDM4) and Class A (CTX-M, SHV, TEM) beta-lactamase were isolated from freshly grown culture by 5 repetitive cycles of freeze and thaw in liquid nitrogen. […] After the stipulated incubation duration, the test compounds were extracted from the reaction mixture by the addition of 0.5 ml of Acetonitrile in 1:1 ratio (final concentration of test compound—40 μg/ml) and centrifuged at 12000 rpm for 2 min to separate precipitated protein. The activity of test compounds was measured from the supernatant by performing microbiological drug diffusion assay. For drug diffusion assay, Muller-Hinton Agar (MHA) seeded with E. coli ATCC 25922 was poured on to a bioassay plate placed on a flat surface and allowed to solidify. Appropriate concentration of the standalone and enzyme treated test compound dilutions were added to 6 mm wells cut with the help of a borer. The antibacterial activity of the test compounds was measured in terms of zones of inhibition appearing after 18-24 hours of incubation at 37° C. Measurement of diameter of zone of inhibition was undertaken to the nearest whole value with the help of ruler.

In the case of `C[C@H]1[C@H](NC(=O)/C(=N\OC(C)(C)C(=O)O)c2csc(N)n2)C(=O)N1S(=O)(=O)O` [Aztreonam], the Bacterial count ([1]; 0 hour, Aztreonam 2 μg/ml) is reported as 5.74 log (CFU/ml), the Bacterial count ([1]; 2 hours, Aztreonam 2 μg/ml) is reported as 6.3 log (CFU/ml) and the Bacterial count ([1]; 4 hours, Aztreonam 2 μg/ml) is reported as 6.65 log (CFU/ml). The Bacterial count ([1]; 6 hours, Aztreonam 2 μg/ml) was 6.54 log (CFU/ml), the Bacterial count ([1]; 24 hours, Aztreonam 2 μg/ml) was 7.15 log (CFU/ml) and the “Bactericidal action (in words)” value [1] was “did not exhibit any bactericidal action”. For the same compound, the Bacterial count ([2]; 0 hour, Aztreonam 1 μg/ml) was 7.47 log (CFU/ml), the Bacterial count ([2]; 2 hours, Aztreonam 1 μg/ml) was 7.48 log (CFU/ml) and the Bacterial count ([2]; 4 hours, Aztreonam 1 μg/ml) was 7.47 log (CFU/ml). For the same compound, the Bacterial count ([2]; 6 hours, Aztreonam 1 μg/ml) was 7.48 log (CFU/ml), the Bacterial count ([2]; 24 hours, Aztreonam 1 μg/ml) was 7.5 log (CFU/ml) and the “Bactericidal action (in words)” value [2] was “did not exhibit any bactericidal action”.

With `CO[C@@]1(NC(=O)Cc2cccs2)C(=O)N2C(C(=O)O)=C(COC(N)=O)CS[C@@H]21` [Cefoxitin] the Bacterial count ([2]; 0 hour, Cefoxitin 1 μg/ml) was 7.47 log (CFU/ml), the Bacterial count ([2]; 2 hours, Cefoxitin 1 μg/ml) was 7.11 log (CFU/ml) and the Bacterial count ([2]; 4 hours, Cefoxitin 1 μg/ml) was 6.7 log (CFU/ml). For the same compound, the Bacterial count ([2]; 6 hours, Cefoxitin 1 μg/ml) was 6.54 log (CFU/ml), the Bacterial count ([2]; 24 hours, Cefoxitin 1 μg/ml) was 9 log (CFU/ml) and the “Bactericidal action (in words)” value [2] was “did not exhibit any significant bactericidal action”.

With `NC(=O)c1cc[n+](CC2=C(C(=O)O)N3C(=O)[C@@H](NC(=O)[C@@H](c4ccccc4)S(=O)(=O)[O-])[C@H]3SC2)cc1` [Cefsulodin] the Bacterial count ([1]; 0 hour, Cefsulodin 2 μg/ml) was 6.81 log (CFU/ml), the Bacterial count ([1]; 2 hours, Cefsulodin 2 μg/ml) was 6.48 log (CFU/ml) and the Bacterial count ([1]; 4 hours, Cefsulodin 2 μg/ml) was 5.07 log (CFU/ml). For the same compound, the Bacterial count ([1]; 6 hours, Cefsulodin 2 μg/ml) was 4.74 log (CFU/ml), the Bacterial count ([1]; 24 hours, Cefsulodin 2 μg/ml) was 9 log (CFU/ml) and the “Bactericidal action (in words)” value [1] was “failed to cause consistent killing till 24 hour”. The Bacterial count ([2]; 0 hour, Cefsulodin 16 μg/ml) was 7.47 log (CFU/ml), the Bacterial count ([2]; 2 hours, Cefsulodin 16 μg/ml) was 8.4 log (CFU/ml) and the Bacterial count ([2]; 4 hours, Cefsulodin 16 μg/ml) was 8.8 log (CFU/ml). For the same compound, the Bacterial count ([2]; 6 hours, Cefsulodin 16 μg/ml) was 8.3 log (CFU/ml), the Bacterial count ([2]; 24 hours, Cefsulodin 16 μg/ml) was 9 log (CFU/ml) and the “Bactericidal action (in words)” value [2] was “did not exhibit any bactericidal action”.

For `C[C@@H](O)[C@H]1C(=O)N2C(C(=O)O)=C(SCCN=CN)C[C@H]12` [Imipenem], the Bacterial count ([3]; 0 hour) was 6.0 log (CFU/ml), the Bacterial count ([3]; 2 hours) was 7.2 log (CFU/ml) and the Bacterial count ([3]; 4 hours) was 7.9 log (CFU/ml). For the same compound, the Bacterial count ([3]; 6 hours) was 7.9 log (CFU/ml), the Bacterial count ([3]; 12 hours) was 8.3 log (CFU/ml) and the Bacterial count ([4]; 0 hour) was 6.3 log (CFU/ml). For the same compound, the Bacterial count ([4]; 2 hours) was 7.2 log (CFU/ml), the Bacterial count ([4]; 4 hours) was 7.9 log (CFU/ml) and the Bacterial count ([4]; 6 hours) was 7.9 log (CFU/ml). The Bacterial count ([4]; 8 hours) was 8 log (CFU/ml), the Bacterial count ([5]; 0 hour) was 6.58 Log10 CFU/ml and the Bacterial count ([5]; 2 hours) was 7.2 Log10 CFU/ml. It also gave a Bacterial count ([5]; 4 hours) of 9.45 Log10 CFU/ml, a Bacterial count ([5]; 6 hours) of 8.65 Log10 CFU/ml and a Bacterial count ([5]; 8 hours) of 8.85 Log10 CFU/ml. The Bacterial count ([6]; 0 hour) was 6.14 Log10 CFU/ml, the Bacterial count ([6]; 2 hours) was 8.65 Log10 CFU/ml and the Bacterial count ([6]; 4 hours) was 8.7 Log10 CFU/ml. For the same compound, the Bacterial count ([6]; 6 hours) was 8.74 Log10 CFU/ml, the Bacterial count ([6]; 8 hours) was 8.78 Log10 CFU/ml and the Bacterial count ([7]; 0 hour) was 5.5 log (CFU/ml). For the same compound, the Bacterial count ([7]; 2 hours) was 3.0 log (CFU/ml), the Bacterial count ([7]; 4 hours) was 3.0 log (CFU/ml) and the Bacterial count ([7]; 6 hours) was 4.0 log (CFU/ml). The Bacterial count ([7]; 24 hours) was 8.69 log (CFU/ml), the zone of inhibition at 40 µg/mL ([8]; 0 hour) was 22 mm and the zone of inhibition at 40 µg/mL ([8]; 1 hour) was 22 mm. The zone of inhibition at 40 µg/mL ([8]; 2 hours) was 22 mm and the zone of inhibition at 40 µg/mL ([8]; 24 hours) was 22 mm.
